Assay results from patent publication US7696148B1, “Administration of products of the 5-lipoxygenase metabolic pathway to enhance antimicrobial defense” (Board of Trustees of Michigan State University, priority 1996, dated 2010).
Like-named read-outs stand apart in the source and are kept apart here.

Tests used:
[1] = test system: normal rat alveolar macrophages; test: Phagocytosis of K. pneumoniae by normal rat alveolar macrophages (phagocytic index); format: cell-based, Wistar rats
Description: (§1) For assays of bacterial phagocytosis and killing, alveolar macrophages were purified from bronchoalveolar lavage cells by adherence for 1 hour in HBSS and studied in monolayer culture. Adherent cells were preincubated with 5% K. pneumoniae-specific immune serum (as a source of both complement and specific opsonizing antibody) for 5 minutes at 37° C. prior to assays. Phagocytosis was studied by incubating 10^5 alveolar macrophages with 10^6 K. pneumoniae in each well of an 8-well Labtek® plate (Nunc) for 1 hour at 37° C.; in some experiments, exogenous LTB4 (Cayman) was added concomitantly with bacteria. The supernatants were aspirated and the cells were washed 3 times with HBSS. The slides were then allowed to air dry, Diff-Quik® (Difco) staining was performed, and 200 cells per well were counted to determine number of intracellular K. pneumoniae and percent of alveolar macrophages containing bacteria. Phagocytic index was calculated as the mean percentage of alveolar macrophages containing bacteria multiplied by the mean number of bacteria per alveolar macrophage.
Alveolar macrophages from Wistar rats were adhered and then incubated for 1 hour with K. pneumoniae alone or in the presence of 1 nM of several 5-LO metabolites (LTB4, LTC4, and 5-HETE). Phagocytic index was subsequently determined as described above in the General Methods.
A related experiment was also performed to determine if the ability of exogenous LTB4 to enhance bacterial phagocytosis is mediated by its interaction with LTB4 receptors. This experiment was based on the fact that pretreatment with LTB4 desensitizes cells to subsequent LTB4 responsiveness; though an understanding of the mechanism of this effect is not required to practice the present invention, the desensitization is believed to occur by down-regulating receptor expression or coupling. For this experiment, cells were pretreated with LTB4 (1 nM) for 1 hour, washed, and incubated with bacteria plus LTB4.

[2] = administered orally to rats; cited from earlier work
[3] = test system: neutrophils from 5-LO knockout mice; test: Phagocytosis of K. pneumoniae by glycogen-elicited peritoneal neutrophils from 5-LO knockout mice; format: cell-based, mouse; conditions: 1 nM LTB4, one hour
Description: as §1
To obtain peritoneal elicited neutrophils, mice are injected intraperitoneally with 5% glycogen in PBS and peritoneal lavage is performed 5 hours later. Approximately 3×10^6 cells are obtained from each animal, approximately 85-90% of which are neutrophils. These cells are likewise placed into culture for functional studies. […]

S. typhimurium = conditions: intraperitoneal injection; cited from earlier work
[4] = 6 ng intratracheally per animal, 6 hours after administration, mice; cited from earlier work
[5] = in vivo bronchoscopic instillation into the human lung; cited from earlier work
Schistosoma mansoni = conditions: neutrophils; cited from earlier work
K. pneumoniae = test: Pulmonary bacterial clearance (lung homogenate CFU) after intratracheal K. pneumoniae challenge in 5-LO knockout mice; format: in vivo, mouse
Description: K. pneumoniae strain 43816, serotype 2 obtained from the ATCC (Assession No. 29939) was grown in tryptic soy broth (Difco) for 18 hours at 37° C. The preparation and intratracheal administration of K. pneumoniae were carried out as described by M. Schneemann et al. [J. Infect. Dis. 167:1358-1363 (1993)]. Bacterial concentration was determined by measuring absorbance at 600 nm and referencing to a standard curve of absorbances vs. known standard CFUs. Bacteria were then pelleted by centrifugation for 30 min at 10,000 rpm, washed ×2 in saline, and resuspended at the desired concentration in saline.
After appropriate dilution of bacteria in endotoxin-free saline, animals were anesthetized with sodium pentobarbital (approximately 0.2 mL diluted 1:7 in saline intraperitoneally) and the trachea was exposed via a small midline incision. […]
Plasma and lung CFU were determined as described by M. Schneemann et al. [J. Infect. […]
LTB4 was administered together with the intratracheal inoculum of K. pneumoniae (50 CFU). […] Second, the present inventors previously found (see FIG. 5) that approximately 7 ng of total LTB4 could be measured in the homogenate of a pair of lungs from Klebsiella-challenged wild type mice. […] Following 24 hours of bacterial inoculation, lungs were harvested and lung homogenate CFUs were determined.

[6] = test system: alveolar macrophages from 5-LO knockout mice; test: Phagocytosis of K. pneumoniae by alveolar macrophages from 5-LO knockout mice (phagocytic index); format: cell-based, mouse; conditions: 5-LO knockout alveolar macrophages
Description: as §1
Cultured alveolar macrophages from knockout mice were incubated in the presence of specific serum for 1 hour with K. pneumoniae alone or in the presence of varying doses of LTB4. Phagocytic index was calculated as described in the General Methods. FIG. 6 graphically depicts the effect of exogenous LTB4 (none, 0.1 nM, and 5 nM LTB4 added) on bacterial phagocytic activity in alveolar macrophages from 5-LO KO mice; each value represents the mean from triplicate cultures. […] Though not required in order to practice the present invention, it is believed that neutrophils manifest similar functional defects in phagocytosis and killing which could contribute to the sensitivity to bacterial pneumonia seen in knockout mice in vivo.

peritoneal macrophages = conditions: cited from earlier work
[7] = mice, once-daily oral dose; cited from earlier work
5-LO = biological target: T1, 5-LO (Mus musculus, UniProt P48999); conditions: once-daily oral agent; cited from earlier work
T1 construct: from tissue; host or cells: whole animal: wild type mice (129/SvEv, The Jackson Laboratory)
T1 sequence (P48999 1-674): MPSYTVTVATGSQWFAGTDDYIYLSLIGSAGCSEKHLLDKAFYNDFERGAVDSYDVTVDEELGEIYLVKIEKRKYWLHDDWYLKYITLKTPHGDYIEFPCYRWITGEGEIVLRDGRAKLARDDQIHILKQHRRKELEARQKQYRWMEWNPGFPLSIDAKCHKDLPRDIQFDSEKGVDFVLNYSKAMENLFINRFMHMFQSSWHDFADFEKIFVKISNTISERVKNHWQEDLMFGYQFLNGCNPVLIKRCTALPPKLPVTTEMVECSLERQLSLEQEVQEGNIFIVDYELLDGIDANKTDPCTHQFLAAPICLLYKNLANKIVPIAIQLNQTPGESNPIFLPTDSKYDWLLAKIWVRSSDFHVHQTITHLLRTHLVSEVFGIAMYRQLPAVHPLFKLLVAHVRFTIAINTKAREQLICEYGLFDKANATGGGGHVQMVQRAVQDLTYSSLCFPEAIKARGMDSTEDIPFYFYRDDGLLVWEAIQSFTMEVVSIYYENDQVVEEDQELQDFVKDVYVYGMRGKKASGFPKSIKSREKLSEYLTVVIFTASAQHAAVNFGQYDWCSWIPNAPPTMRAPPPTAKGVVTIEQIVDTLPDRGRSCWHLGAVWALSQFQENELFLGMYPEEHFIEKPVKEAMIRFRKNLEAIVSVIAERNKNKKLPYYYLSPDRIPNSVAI

[8] = normal rat alveolar macrophages, 1 nM, 1 hour with K. pneumoniae

CCCCC/C=C\C/C=C\C/C=C\C=C\[C@@H](O)CCCC(=O)O [5-HETE]
effect on phagocytic index [1, 8]: similar, though less pronounced, effect

CN(C)C(=O)CCSC(SCCC(=O)O)c1cccc(/C=C/c2ccc3ccc(Cl)cc3n2)c1 (stereo not drawn) [MK-571]
antigen-induced bronchoconstriction [2]: effectively inhibited antigen-induced bronchoconstriction

CCCCC/C=C\C\C=C/C=C/C=C/[C@@H](SC[C@H](NC(=O)CC[C@H](N)C(=O)O)C(=O)NCC(=O)O)[C@@H](O)CCCC(=O)O [LTC4, leukotriene C4]
effect on phagocytic index [1, 8]: augmented phagocytosis to a degree similar to LTB4

CCCCC/C=C\C[C@@H](O)/C=C/C=C/C=C\[C@@H](O)CCCC(=O)O [LTB4, leukotriene B4]
phagocytic index [3]: 27±8
in vivo clearance of S. typhimurium (S. typhimurium): enhanced the in vivo clearance
neutrophil influx [4]: brisk neutrophil influx
effect of LTB4 pretreatment on LTB4-augmented phagocytosis ([1]; cells pretreated with LTB4 1 nM for 1 hour, washed, then bacteria plus LTB4 1 nM): almost completely abrogated
increase in phagocytic index [1, 8]: approximately 6 fold
neutrophil influx [5]: resulted in neutrophil influx
in vitro killing of Schistosoma mansoni (Schistosoma mansoni): enhanced
effect on in vivo bacterial clearance (K. pneumoniae; intrapulmonary administration): partially overcame the in vivo impairment in bacterial clearance
reduction of lung CFU (K. pneumoniae; single 6 ng intratracheal dose with 50 CFU inoculum, 24 hours): approximately 10 fold
phagocytic index relative to baseline level ([6]; 5 nM LTB4, 1 hour with K. pneumoniae, specific serum): approximately three
increase of phagocytic index ([6]; exogenous LTB4): approximately 300%
effect on phagocytic index ([6]; none, 0.1 nM and 5 nM LTB4): dose-dependently enhanced the phagocytic index
in vitro phagocytosis and killing of P. aeruginosa and Salmonella typhimurium (peritoneal macrophages): enhanced the in vitro phagocytosis and killing

O=C(O)C1(c2ccc3c(c2)OC[C@H](Cc2ccc(-c4ccccc4)cc2)[C@H]3O)CCCC1 [CP-105,696]
collagen-induced arthritis [7]: inhibited collagen-induced arthritis

C[C@H](C#Cc1ccc(Oc2ccc(F)cc2)o1)N(O)C(N)=O [A-79175]
efficacy in mice (5-LO): demonstrated efficacy in mice
